In article PMC11289882, “Site-directed allostery perturbation to probe the negative regulation of hypoxia inducible factor-1α” (RSC Chemical Biology, 2024):
Where two headings read alike, the source gives them in different places. Non-standard residues stand in square brackets, D forms with d. Residues, ends and D or L forms follow the SMILES beside them. β3hE = N[C@@H](CCC(=O)O)CC(=O)O; β3hL = CC(C)C[C@H](N)CC(=O)O; β3hD = NC(CC(=O)O)CC(=O)O

Legend:
p300–Flu-HIF-1α = target: T1, p300–Flu-HIF-1α (Homo sapiens, UniProt Q09472); assay: Fluorescence anisotropy competition against p300–Flu-HIF-1α; type: binding
T1 construct: from residues 330-420 (used for FA and ITC experiments); GST (N, cleaved yes); made in house; host or cells: p300: E. coli BL21 pLysS (pGEX-4T-1); tracer peptide: solid-phase synthesis

[1] = target: T2, p300_330–420 (TAZ1 domain) (Homo sapiens, UniProt Q09472); assay: ITC direct titration to p300; type: binding; conditions: 35 °C
T2 construct: from residues 330-420 (used for FA and ITC experiments); GST (N, cleaved yes); made in house; host or cells: E. coli BL21 pLysS (pGEX-4T-1)

[2] = 5 µM p300_330–420 in cell, 60 µM ligand in syringe, 40 mM Na-phosphate pH 7.5, 100 mM NaCl, 1 mM DTT, global fit with ternary intermediate model, 68% confidence intervals in brackets, read-out: Direct binding to p300, K d
[3] = 50 nM p300_330–420, 25 nM Flu-HIF-1α786–826 tracer, 40 mM Na-phosphate, 100 mM NaCl, 1 mM DTT, 0.01% Triton-X, pH 7.4, 10 min at 35 °C, fixed KD = 64 nM for tracer, three repeats, read-out: Kd,app FA competition against p300–Flu-HIF-1α

T2 sequence (Q09472 330-420): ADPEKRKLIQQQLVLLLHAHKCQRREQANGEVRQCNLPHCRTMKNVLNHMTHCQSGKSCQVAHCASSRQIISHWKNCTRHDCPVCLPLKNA
T1 sequence (Q09472 330-420): as above

| Compound | Kd (p300–Flu-HIF-1α; as other FA competition values, average and standard deviation of two individual titrations (Fig. 2 and Fig. S11), SD, read-out: Kd,app FA competition against p300–Flu-HIF-1α) [nM] | Kd [1, 2] [nM] | Kd (p300–Flu-HIF-1α; [3]) [nM] | Kd ([1]; 5 µM protein in cell, 60 µM peptide in syringe, 40 mM Na-phosphate, 100 mM NaCl, 1 mM DTT pH 7.4, average of three independent measurements, read-out: KD of HIF-1α776-826 binding to p300) [nM] | Kd (p300–Flu-HIF-1α; determined by FA competition with HIF-1α776–826 as competitor (competitor KD 50 ± 8 nM from ITC), 50 nM p300, 25 nM tracer, 35 °C, read-out: KD of the fluorescent tracer for p300) [nM] |
| --- | --- | --- | --- | --- | --- |
| Ac-IDTDFIDEEVLMSLVIEMGLDRIKELPELWLGQNEFDFM-NH2 [CITED2_218–256] | 2 ± 0.9 | 11 |  |  |  |
| CC[C@H](C)[C@H](NC(C)=O)C(=O)N[C@@H](CC(=O)O)C(=O)N[C@H](C(=O)N[C@@H](CC(=O)O)C(=O)N[C@@H](Cc1ccccc1)C(=O)N[C@H](C(=O)N[C@@H](CC(=O)O)C(=O)N[C@@H](CCC(=O)O)C(=O)N[C@@H](CCC(=O)O)C(=O)N[C@H](C(=O)N[C@@H](CC(C)C)C(=O)N[C@@H](CCSC)C(=O)N[C@@H](CO)C(=O)N[C@@H](CC(C)C)C(=O)N[C@H](C(=O)N[C@H](C(=O)N[C@@H](CCC(=O)O)C(=O)N[C@@H](CCSC)C(=O)NCC(=O)N[C@@H](CC(C)C)C(=O)N[C@@H](CC(=O)O)CC(=O)N[C@@H](CCCNC(=N)N)C(=O)N[C@H](C(=O)N[C@@H](CCCCN)C(=O)N[C@@H](CCC(=O)O)CC(=O)N[C@@H](CC(C)C)C(=O)N1CCC[C@H]1C(=O)N[C@@H](CCC(=O)O)CC(=O)N[C@@H](CC(C)C)C(=O)N[C@@H](Cc1c[nH]c2ccccc12)C(=O)N[C@@H](CC(C)C)C(=O)NCC(=O)N[C@@H](CCC(N)=O)C(=O)N[C@@H](CC(N)=O)C(=O)N[C@@H](CCC(=O)O)C(=O)N[C@@H](Cc1ccccc1)C(=O)N[C@@H](CC(=O)O)C(=O)N[C@@H](Cc1ccccc1)C(=O)N[C@@H](CCSC)C(N)=O)[C@@H](C)CC)[C@@H](C)CC)C(C)C)C(C)C)[C@@H](C)CC)[C@@H](C)O [3a] (Ac-IDTDFIDEEVLMSLVIEMGL[β3hD]RIK[β3hE]LP[β3hE]LWLGQNEFDFM-NH2) |  | 675 | > 600 |  |  |
| CC[C@H](C)[C@H](NC(C)=O)C(=O)N[C@@H](CC(=O)O)C(=O)N[C@H](C(=O)N[C@@H](CC(=O)O)C(=O)N[C@@H](Cc1ccccc1)C(=O)N[C@H](C(=O)N[C@@H](CC(=O)O)C(=O)N[C@@H](CCC(=O)O)C(=O)N[C@@H](CCC(=O)O)C(=O)N[C@H](C(=O)N[C@@H](CC(C)C)C(=O)N[C@@H](CCSC)C(=O)N[C@@H](CO)C(=O)N[C@@H](CC(C)C)C(=O)N[C@H](C(=O)N[C@H](C(=O)N[C@@H](CCC(=O)O)C(=O)N[C@@H](CCSC)C(=O)NCC(=O)N[C@@H](CC(C)C)C(=O)N[C@@H](CC(=O)O)CC(=O)N[C@@H](CCCNC(=N)N)C(=O)N[C@H](C(=O)N[C@@H](CCC(=O)O)CC(=O)N[C@@H](CC(C)C)C(=O)N1CCC[C@H]1C(=O)N[C@@H](CCC(=O)O)C(=O)N[C@@H](CC(C)C)C(=O)N[C@@H](Cc1c[nH]c2ccccc12)C(=O)N[C@H](CC(=O)NCC(=O)N[C@@H](CCC(N)=O)C(=O)N[C@@H](CC(N)=O)C(=O)N[C@@H](CCC(=O)O)C(=O)N[C@@H](Cc1ccccc1)C(=O)N[C@@H](CC(=O)O)C(=O)N[C@@H](Cc1ccccc1)C(=O)N[C@@H](CCSC)C(N)=O)CC(C)C)[C@@H](C)CC)[C@@H](C)CC)C(C)C)C(C)C)[C@@H](C)CC)[C@@H](C)O [3b] (Ac-IDTDFIDEEVLMSLVIEMGL[β3hD]RI[β3hE]LPELW[β3hL]GQNEFDFM-NH2) |  | 98 | 112 ± 13 |  |  |
| CC[C@H](C)[C@H](NC(=O)[C@@H]1CCCN1C(=O)[C@H](C)NC(=O)[C@H](CC(N)=O)NC(=O)[C@@H](NC(=O)[C@H](CCC(=O)O)NC(=O)[C@H](CS)NC(=O)[C@H](CC(=O)O)NC(=O)[C@H](Cc1ccc(O)cc1)NC(=O)[C@H](CO)NC(=O)[C@@H](NC(=O)[C@H](CC(C)C)NC(=O)[C@H](CCC(N)=O)NC(=O)[C@@H]1CCCN1C(=O)[C@H](CC(C)C)NC(=O)CNC(=O)[C@H](CO)NC(=O)[C@H](CCC(=O)O)NC(=O)[C@H](CC(=O)O)NC(=O)[C@H](CCSC)NC(=O)[C@H](CO)NC(=O)[C@H](CCC(N)=O)NC(=O)CNC(=O)[C@H](CC(C)C)NC(=O)[C@H](CC(C)C)NC(=O)[C@H](CCCNC(=N)N)NC(=O)[C@H](CS)NC(=O)[C@H](C)NC(=O)[C@H](CC(C)C)NC(=O)[C@H](CC(=O)O)NC(=O)[C@H](CO)NC(C)=O)[C@@H](C)O)C(C)C)C(=O)N[C@@H](CCC(N)=O)C(=O)NCC(=O)N[C@@H](CO)C(=O)N[C@@H](CCCNC(=N)N)C(=O)N[C@@H](CC(N)=O)C(=O)N[C@@H](CC(C)C)C(=O)N[C@@H](CC(C)C)C(=O)N[C@@H](CCC(N)=O)C(=O)NCC(=O)N[C@@H](CCC(=O)O)C(=O)N[C@@H](CCC(=O)O)C(=O)N[C@@H](CC(C)C)C(=O)N[C@@H](CC(C)C)C(=O)N[C@@H](CCCNC(=N)N)C(=O)N[C@@H](C)C(=O)N[C@@H](CC(C)C)C(=O)N[C@@H](CC(=O)O)C(=O)N[C@@H](CCC(N)=O)C(=O)N[C@H](C(=O)N[C@@H](CC(N)=O)C(N)=O)C(C)C [HIF-1α776–826] |  |  | 57 ± 4 | 50 ± 8 |  |
| CC[C@H](C)[C@H](NC(C)=O)C(=O)N[C@@H](CC(=O)O)CC(=O)N[C@H](C(=O)N[C@@H](CC(=O)O)CC(=O)N[C@@H](Cc1ccccc1)C(=O)N[C@H](C(=O)N[C@@H](CC(=O)O)CC(=O)N[C@@H](CCC(=O)O)C(=O)N[C@@H](CCC(=O)O)C(=O)N[C@H](C(=O)N[C@@H](CC(C)C)C(=O)N[C@@H](CCSC)C(=O)N[C@@H](CO)C(=O)N[C@@H](CC(C)C)C(=O)N[C@H](C(=O)N[C@H](C(=O)N[C@@H](CCC(=O)O)C(=O)N[C@@H](CCSC)C(=O)NCC(=O)N[C@@H](CC(C)C)C(=O)N[C@@H](CC(=O)O)C(=O)N[C@@H](CCCNC(=N)N)C(=O)N[C@H](C(=O)N[C@@H](CCCCN)C(=O)N[C@@H](CCC(=O)O)C(=O)N[C@@H](CC(C)C)C(=O)N1CCC[C@H]1C(=O)N[C@@H](CCC(=O)O)C(=O)N[C@@H](CC(C)C)C(=O)N[C@@H](Cc1c[nH]c2ccccc12)C(=O)N[C@@H](CC(C)C)C(=O)NCC(=O)N[C@@H](CCC(N)=O)C(=O)N[C@@H](CC(N)=O)C(=O)N[C@@H](CCC(=O)O)C(=O)N[C@@H](Cc1ccccc1)C(=O)N[C@@H](CC(=O)O)C(=O)N[C@@H](Cc1ccccc1)C(=O)N[C@@H](CCSC)C(N)=O)[C@@H](C)CC)[C@@H](C)CC)C(C)C)C(C)C)[C@@H](C)CC)[C@@H](C)O [compound 1] (Ac-I[β3hD]T[β3hD]FI[β3hD]EEVLMSLVIEMGLDRIKELPELWLGQNEFDFM-NH2) |  | 19 | 9.6 ± 2.4 |  |  |
| Ac-DEEVLMSLVIEMGLDRIKELPELWLGQNEFDFM-NH2 [CITED2ΔN] |  | 51 | 86 ± 5 |  |  |
| CC[C@H](C)[C@H](NC(=O)[C@@H]1CCCN1C(=O)[C@H](C)NC(=O)[C@H](CC(N)=O)NC(=O)[C@@H](NC(=O)[C@H](CCC(=O)O)NC(=O)[C@H](CS)NC(=O)[C@H](CC(=O)O)NC(=O)[C@H](Cc1ccc(O)cc1)NC(=O)[C@H](CO)NC(=O)[C@@H](NC(=O)[C@H](CC(C)C)NC(=O)[C@H](CCC(N)=O)NC(=O)[C@@H]1CCCN1C(=O)[C@H](CC(C)C)NC(=O)CNC(=O)[C@H](CO)NC(=O)[C@H](CCC(=O)O)NC(=O)[C@H](CC(=O)O)NC(=O)[C@H](CCSC)NC(=O)[C@H](CO)NC(=O)CCCCCNC(=O)c1ccc2c(c1)C(=O)OC21c2ccc(O)cc2Oc2cc(O)ccc21)[C@@H](C)O)C(C)C)C(=O)N[C@@H](CCC(N)=O)C(=O)NCC(=O)N[C@@H](CO)C(=O)N[C@@H](CCCNC(=N)N)C(=O)N[C@@H](CC(N)=O)C(=O)N[C@@H](CC(C)C)C(=O)N[C@@H](CC(C)C)C(=O)N[C@@H](CCC(N)=O)C(=O)NCC(=O)N[C@@H](CCC(=O)O)C(=O)N[C@@H](CCC(=O)O)C(=O)N[C@@H](CC(C)C)C(=O)N[C@@H](CC(C)C)C(=O)N[C@@H](CCCNC(=N)N)C(=O)N[C@@H](C)C(=O)N[C@@H](CC(C)C)C(=O)N[C@@H](CC(=O)O)C(=O)N[C@@H](CCC(N)=O)C(=O)N[C@H](C(=O)N[C@@H](CC(N)=O)C(N)=O)C(C)C [Flu-HIF-1α] |  |  |  |  | 64 |
